The text below walks through data of article PMC10909971, “Glucose 6‐phosphate dehydrogenase variants increase NADPH pools for yeast isoprenoid production” (FEBS Open Bio, 2024).

Data set [1] deals with T1, G6PD-6PGL (linker-less fusion).
T1 construct: gene ZWF1
To be noted: read-out: G6PD-6PGL, 100 mM Tris-HCl pH 8.0, 10 mM MgCl2, 25 °C, G6PD domain.

Data set [2] concerns T2, G6PD-L-6PGL (fusion with linker).
T2 construct: gene ZWF1
Particulars: read-out: G6PD-L-6PGL, 100 mM Tris-HCl pH 8.0, 10 mM MgCl2, 25 °C, G6PD domain.

Substrate in the data set “purified protein”: NC(=O)c1ccc[n+]([C@@H]2O[C@H](COP(=O)(O)OP(=O)(O)OC[C@H]3O[C@@H](n4cnc5c(N)ncnc54)[C@H](OP(=O)(O)O)[C@@H]3O)[C@@H](O)[C@H]2O)c1
Briefly: purified protein. Particulars: G6P held constant, 100 mM Tris-HCl pH 8.0, 10 mM MgCl2, 25 °C.

Read-outs that look alike come from different tables or passages of the source.

In the case of `NC(=O)c1ccc[n+]([C@@H]2O[C@H](COP(=O)(O)OP(=O)(O)OC[C@H]3O[C@@H](n4cnc5c(N)ncnc54)[C@H](OP(=O)(O)O)[C@@H]3O)[C@@H](O)[C@H]2O)c1` [NADP^+], the results for the Km in data set [1] (G6P held constant) and in data set [2] (G6P held constant) were 2.6 ± 0.4 µM and 5.6 ± 0.2 µM, respectively.

Take `O=P(O)(O)OC[C@H]1OC(O)[C@H](O)[C@@H](O)[C@@H]1O` (stereo partly drawn) [glucose 6‐phosphate]: the figures for the Km in data set [1] (NADP+ held constant) and in data set [2] (NADP+ held constant) were 0.6 µM and 2.3 ± 0.2 µM, respectively.

B1: ScG6PD (G6PD, ZWF1) (Saccharomyces cerevisiae S288C) (protein)
chain: MSEGPVKFEKNTVISVFGASGDLAKKKTFPALFGLFREGYLDPSTKIFGYARSKLSMEEDLKSRVLPHLKKPHGEADDSKVEQFFKMVSYISGNYDTDEGFDELRTQIEKFEKSANVDVPHRLFYLALPPSVFLTVAKQIKSRVYAENGITRVIVEKPFGHDLASARELQKNLGPLFKEEELYRIDHYLGKELVKNLLVLRFGNQFLNASWNRDNIQSVQISFKERFGTEGRGGYFDSIGIIRDVMQNHLLQIMTLLTMERPVSFDPESIRDEKVKVLKAVAPIDTDDVLLGQYGKSEDGSKPAYVDDDTVDKDSKCVTFAAMTFNIENERWEGVPIMMRAGKALNESKVEIRLQYKAVASGVFKDIPNNELVIRVQPDAAVYLKFNAKTPGLSNATQVTDLNLTYASRYQDFWIPEAYEVLIRDALLGDHSNFVRDDELDISWGIFTPLLKHIERPDGPTPEIYPYGSRGPKGLKEYMQKHKYVMPEKHPYAWPVTKPEDTKDN
As for B1, the Km in “purified protein” came to 0.6 ± 0.1 µM.

B2: ScG6PD (G6PD, ZWF1) (Saccharomyces cerevisiae S288C; N403D) (protein)
chain: MSEGPVKFEKNTVISVFGASGDLAKKKTFPALFGLFREGYLDPSTKIFGYARSKLSMEEDLKSRVLPHLKKPHGEADDSKVEQFFKMVSYISGNYDTDEGFDELRTQIEKFEKSANVDVPHRLFYLALPPSVFLTVAKQIKSRVYAENGITRVIVEKPFGHDLASARELQKNLGPLFKEEELYRIDHYLGKELVKNLLVLRFGNQFLNASWNRDNIQSVQISFKERFGTEGRGGYFDSIGIIRDVMQNHLLQIMTLLTMERPVSFDPESIRDEKVKVLKAVAPIDTDDVLLGQYGKSEDGSKPAYVDDDTVDKDSKCVTFAAMTFNIENERWEGVPIMMRAGKALNESKVEIRLQYKAVASGVFKDIPNNELVIRVQPDAAVYLKFNAKTPGLSNATQVTDLDLTYASRYQDFWIPEAYEVLIRDALLGDHSNFVRDDELDISWGIFTPLLKHIERPDGPTPEIYPYGSRGPKGLKEYMQKHKYVMPEKHPYAWPVTKPEDTKDN
Turning to B2, the Km in the data set “purified protein” stood at 0.8 ± 0.1 µM.
